Assay results: patent US8394832B2, “Methods and compositions using immunomodulatory compounds for the treatment of immunodeficiency disorders” (Celgene Corporation, priority 2004, dated 2013)

Key:
TNFα = TNFα ELISA of treated B cells; format: cell-based, human; details: activated CD19+ cells (FIG. 4)
Experimental: Human buffy coat (50 ml) was diluted with 50 ml sterile PBS (Ca^++, Mg^++ free), and mixed gently. A 25 ml aliquot of diluted buffy coat was transferred to each 50 ml centrifuge tube, and Histopaque-1077 (14 ml, #1077-1, Sigma) was gently layered into the bottom of the tube. The sample was centrifuged at 2,000 rpm for 30 min at room temperature. The interface containing mononuclear cells was transferred into 50 ml centrifuge tube, and washed once with PBS (1200 rpm, 5 min). The supernatant was discarded. Cell pellet was resuspended in Miltenyi buffer. Anti-CD19^+ microbeads were added to the suspension (10^7 cells in 80 μl of buffer, 20 μl antibody beads for 10^7 cells) and incubated for 15 min at 4° C. Cell pellet was washed once and resuspended in 1 ml Miltenyi buffer. The cell suspension was added to the magnetic column, washed with 10 ml Miltenyi buffer in the column. CD19^+ cells are released by 1 ml Miltenyi Buffer without magnetic field. CD19^+ cells were washed twice with RPMI complete medium. B cells (2×10^5) were plated in 96 well plate. […]
TNFα levels in 1,3-dioxo-(2,6-dioxopiperidin-3-yl)-4-aminoisoindoline or 1-oxo-(2,6-dioxopiperidin-3-yl)-4-aminoisoindoline treated B cells were determined using TNFα ELISA.

CD69 = experiment: FACS analysis of CD69 expression in CD19+ B cells; format: cell-based, human
Experimental: (§1) Human buffy coat (50 ml) was diluted with 50 ml sterile PBS (Ca^++, Mg^++ free), and mixed gently. A 25 ml aliquot of diluted buffy coat was transferred to each 50 ml centrifuge tube, and Histopaque-1077 (14 ml, #1077-1, Sigma) was gently layered into the bottom of the tube. The sample was centrifuged at 2,000 rpm for 30 min at room temperature. The interface containing mononuclear cells was transferred into 50 ml centrifuge tube, and washed once with PBS (1200 rpm, 5 min). The supernatant was discarded. Cell pellet was resuspended in Miltenyi buffer. Anti-CD19^+ microbeads were added to the suspension (10^7 cells in 80 μl of buffer, 20 μl antibody beads for 10^7 cells) and incubated for 15 min at 4° C. Cell pellet was washed once and resuspended in 1 ml Miltenyi buffer. The cell suspension was added to the magnetic column, washed with 10 ml Miltenyi buffer in the column. CD19^+ cells are released by 1 ml Miltenyi Buffer without magnetic field. CD19^+ cells were washed twice with RPMI complete medium. B cells (2×10^5) were plated in 96 well plate.
B cells were treated with 1,3-dioxo-(2,6-dioxopiperidin-3-yl)-4-aminoisoindoline (FIG. 3A) or 1-oxo-(2,6-dioxopiperidin-3-yl)-4-aminoisoindoline (FIG. 3B) in presence of anti IgM, anti CD40 and IL-4 for 3 days. The suspension of B cells was washed by PBS once, and incubated with FITC conjugated anti human CD69 for 30 min in the dark. B cells were subject to FACS analysis using flow cytometer (EPICS XL-MCL, Beckman Coulter Company).
To assess whether the effects of immunomodulatory compounds on IL-4 signaling impact on IL-4 mediated B cell activation, FACS array of immediate early expression marker CD69 expression at triplicates and six doses was examined using 1,3-dioxo-(2,6dioxopiperidin-3-yl)-4-aminoisoindoline or 1-oxo-(2,6-dioxopiperidin-3-yl)-4-aminoisoindoline. […] Thus, it is clear that immunomodulatory compounds have no impact on this process.

IgE synthesis = experiment: IgE ELISA of human PBMC treated with anti CD40 and IL-4 for three weeks; format: cell-based; details: 504 h, human PBMCs in presence of CD40+IL-4 for three weeks (FIGS. 11A and B), read-out: IC50 of inhibition of IgE synthesis
Experimental: Human PBMCs (1×10^6/ml) were treated with immunomodulatory compounds in presence of anti-CD40 (2 ug/ml) and IL-4 (40 ng/ml) for three weeks. Fifty microliter of supernatant was used for IgE ELISA, following the manufacturer's instruction. The absorbance was read by ELISA reader at OD=450 nm.
IL-4 is a unique signal for B cells to produce IgE during the immunoglobulin class switch. To assess whether immunomodulatory compounds can regulated IgE synthesis, 1,3-dioxo-(2,6-dioxopiperidin-3-yl)-4-aminoisoindoline or 1-oxo-(2,6-dioxopiperidin-3-yl)-4-aminoisoindoline was incubated with human PBMCs in presence of CD40+IL-4 for three weeks. […] (FIGS. 11A and B).
Treatment of PBMC: 200 μl of 1×10^6/ml human PBMC were plated in 96 well plate, and the cells were pretreated with IMiDs at indicated concentrations (60, 6, 0.6, 0.06, 0.006, 0.0006 uM) for 30 minutes. Anti CD40 (#AHS4002, Biosource, 2 μg/ml) and IL-4 (#200-04, Pepro Tech, 40 ng/ml) were added to each well. Human PBMC in presence of IMiDs, anti CD40 and IL-4 were incubated for three weeks. Fifty microliters of supernatant was subjected to IgE ELISA.
IgE ELISA: The IgE ELISA Quantitation Kit was purchased from Bethyl Laboratories, Inc. (#E80-108). […] The ELISA plate was read at OD=450 nm in ELISA plate reader.

B cells = experiment: B cell proliferation by BrdU ELISA; format: cell-based, human; details: 3 days (FIG. 7A)
Experimental: as §1
B cells were pretreated with 1,3-dioxo-(2,6-dioxopiperidin-3-yl)-4-aminoisoindoline or 1-oxo-(2,6-dioxopiperidin-3-yl)-4-aminoisoindoline at the concentrations of 60 μM, 6 μM, 0.6 μM, 0.06 μM, 0.006 μM, and 0.0006 μM for 30 min, then were added 2 μg/ml of anti-IgM, 2 μg/ml of anti CD40, 40 ng/ml IL-4, 100 ng/ml of recombinant BAFF, and/or 0.5 μg/ml of LPS. B cells were typically treated with the immunomodulatory compound alone or in presence of one or more of above stimuli for 3 days. Stimulated B cells with or without the treatment with immunomodulatory compound were used for cell proliferation assay and cytokines analysis.
The crosslinking of B cell receptor antigen (“BCR”) is the primary signal for B cell activation in response to antigen, and is critical in initializing subsequent B cell activation, proliferation, and differentiation. To assess B cell activation, B cells were treated with 1,3-dioxo-(2,6-dioxopiperidin-3-yl)-4-aminoisoindoline or 1-oxo-(2,6-dioxopiperidin-3-yl)-4-aminoisoindoline in presence of stimuli for 3 days. 25 μl BrdU was added to 250 μl cell culture 24 hours before harvesting cells. B cells were dried at 60° C. after removal of labeling supernatant. 100 μl FixDenat solution was added to fix cells for 30 min at room temperature. FixDenat solution was removed by tapping plate, then 100 μl anti-BrdU-POD was added each well for 90 min, at room temperature, and the plate was washed three 3 times. 100 μl of substrate was added to plate for 10 min, then 100 μl stop solution was added. Absorbance was measured by using an ELISA microplate reader (Molecular Devices) at OD 450 nm. […]

`Nc1cccc2c1C(=O)N(C1CCC(=O)NC1=O)C2=O` (stereo not drawn) [1,3-dioxo-(2,6-dioxopiperidin-3-yl)-4-aminoisoindoline] was tested, and the “TNFα production in B cells” value (TNFα) was “dose dependently enhance”, the CD69 expression (CD69; CD19+ B cells treated with anti human IgM, anti human CD40 and IL-4, 3 days (FIGS. 3A, 3B)) was “dose-dependently enhanced” and the CD69 expression (CD69; IL-4 stimulated CD19+ B cells, triplicates, six doses (FIGS. 10A and B)) was “neither immunomodulatory compound inhibited”. For the same compound, the IC50 (IgE synthesis) was 100 to 300 nM, the B cell proliferation (B cells; combined with IgM (anti-IgM)) was “enhance” and the “effect on B cell activation/proliferation” value (B cells; compound alone) was “minimal effect”.
